The results in this text go back to publication PMC11772769, “Selective cargo and membrane recognition by SNX17 regulates its interaction with Retriever” (EMBO Reports, 2024).

Test [1] addresses T1, SNX17FERM-CT (amino acids 109-470) (Homo sapiens, UniProt Q15036).
T1 construct: His-Sumo3 (N, cleaved yes); made in house; host or cells: Escherichia coli BL21(DE3)
T1 sequence (Q15036 109-470): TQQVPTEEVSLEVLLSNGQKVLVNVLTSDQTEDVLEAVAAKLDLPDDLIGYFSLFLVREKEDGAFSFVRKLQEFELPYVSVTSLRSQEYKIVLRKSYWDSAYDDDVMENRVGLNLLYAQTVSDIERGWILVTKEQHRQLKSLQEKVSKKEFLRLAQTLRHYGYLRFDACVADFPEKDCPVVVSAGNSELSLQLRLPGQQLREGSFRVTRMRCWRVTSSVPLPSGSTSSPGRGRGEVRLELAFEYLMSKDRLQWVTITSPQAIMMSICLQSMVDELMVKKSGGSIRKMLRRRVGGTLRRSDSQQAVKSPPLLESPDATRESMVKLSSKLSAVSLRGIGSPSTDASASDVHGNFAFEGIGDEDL
Briefly: Fluorescence anisotropy binding of 5-FAM cargo peptides to SNX17FERM-CT. On the procedure:
(§1) Lyophilized peptides were resuspended in 100 mM Hepes pH 8.0 at 5 mg/ml and further diluted in the assay buffer (50 mM Hepes pH 7.5, 300 mM NaCl, and 1 mM DTT). […] The mixture was incubated at 25 °C for at least 30 min and then transferred to 96 Flat Black plates. Fluorescence anisotropy was measured at 25 °C using Spark 10M Plate Reader (Tecan) with a 485/20 excitation filter and a 535/35 emission filter. The dissociation constants were calculated in GraphPad Prism by nonlinear regression fitting of the experimental data to a one-site total binding model. The final KD measurement is the mean of at least two independent experiments.
(In general: In fluorescence polarisation assays a small probe gives low polarisation when free and higher when bound to something large.)

In a further test the target is T2, MBP-SNX17H457A (Homo sapiens, UniProt Q15036, H457A).
T2 construct: M protein marker, R Retriever complex, FL full-length; His (N, cleaved yes); made in house; host or cells: Escherichia coli BL21(DE3)
T2 sequence (Q15036 1-470 H457A): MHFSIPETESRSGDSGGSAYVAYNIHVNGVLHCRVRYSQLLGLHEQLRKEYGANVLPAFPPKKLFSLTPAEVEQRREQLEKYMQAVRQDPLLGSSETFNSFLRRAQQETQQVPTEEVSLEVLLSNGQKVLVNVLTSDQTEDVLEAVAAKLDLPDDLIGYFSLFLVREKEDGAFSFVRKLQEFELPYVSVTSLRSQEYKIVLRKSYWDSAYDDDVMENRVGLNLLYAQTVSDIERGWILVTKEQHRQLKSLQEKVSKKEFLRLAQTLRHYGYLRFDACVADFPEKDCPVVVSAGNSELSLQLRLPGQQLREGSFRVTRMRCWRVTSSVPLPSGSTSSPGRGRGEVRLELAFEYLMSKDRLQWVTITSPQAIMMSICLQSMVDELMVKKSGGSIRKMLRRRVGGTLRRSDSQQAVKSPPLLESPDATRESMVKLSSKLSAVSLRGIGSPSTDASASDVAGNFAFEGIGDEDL
Briefly: Fluorescence anisotropy binding of 5-FAM peptides to MBP-SNX17 H457A. On the procedure:
as §1

Where no end group is shown, it is not given here.

Regarding KLITYDNPAYEGID [L2 14-mer], the Kd – broadly, the equilibrium constant for the complex coming apart – in test [1] came to 0.64 µM; at MBP-SNX17H457A, 1.1 ± 0.3 µM.
